One series in a line: Interlayer (basal) spacing of montmorillonite clay treated with expansive-type precursors/modifiers.
Details: not given
The class given is physicochemical.
On to `OCCO` [Ethylene glycol], for which the dMODIFIER is reported as 0.95 nm.

Staying with this series, now noted: montmorillonite; spacing of the clay with the named modifier.
`OC[C@@H](O)[C@H]1OC[C@H](O)[C@H]1O` [Sorbitan] registered a dMODIFIER of 1.09 nm.

For `CC(O)CO` (stereo not drawn) [Propylene glycol], the dMODIFIER was 1.01 nm.

On to `OCC(O)CO` [Glycerol], for which the dMODIFIER is 1.02 nm.

On to Sucrose acetoisobutyrate, for which the dMODIFIER was 1.08 nm.

`OCCOCCO` [Diethylene glycol] came in with a dMODIFIER of 1.04 nm.

Vinyl versatate had a dMODIFIER of 1.11 nm.

The compound `OCCOCCOCCO` [Triethylene glycol] yielded a dMODIFIER of 1.08 nm.

For `OC[C@@H](O)[C@@H](O)[C@H](O)[C@@H](O)CO` [Sorbitol], the dMODIFIER is recorded as 1.19 nm.

Take `C=CN1CCCC1=O` [Vinyl pyrrolidone]: the dMODIFIER came to 1.23 nm.

The compound `O=C(O)CO` [Glycolic acid] came in with a dMODIFIER of 1.06 nm.

In the case of Calcium butyrate, the dMODIFIER is given as 0.92 nm.

Consider `OCCCO` [1,3-Propanediol], for which the dMODIFIER was 0.98 nm.

As for `OC[C@@H](O)[C@@H](O)[C@@H](O)CO` [Adonitol], the dMODIFIER is given as 1.04 nm.

`CC(O)CO` (stereo not drawn) [1,2-Propanediol] yielded a dMODIFIER of 1.09 nm.

Compound Manganese butyrate registered a dMODIFIER of 0.95 nm.

The next series in a line: Interlayer (basal) spacing of kaolinite clay treated with expansive-type precursors/modifiers. Type of series: physicochemical.
Details: not given
An excerpt:
The penetration of the precursors is accelerated by means of the use of temperature, a turbulent regime homogenizer, ultrasound, pressure or a combination thereof. They can be dried by evaporation in a stove, lyophilization, centrifugation processes and/or gravimetric processes in solution or turbo-drying processes or by atomization processes.
In this example the modification process consists of a first step in which the purified kaolinite and montmorillonite clay fining agents are pretreated with an ethanol/water 50/50 (v/v) mixture at 50° C. This process was carried out together with an ultrasonic stirring treatment process for 1 hour and with stirring with a homogenizer for 2 hours to favor the intercalation of the precursor in the clay. The solvent was then removed by means of lyophilization and/or evaporation. […]
As for `CC(=O)[O-].[K+]` [Potassium acetate], the dMODIFIER turned out to be 1.39 nm.

In the case of `FC(F)=C(F)F` [Tetrafluoroethylene], the dMODIFIER amounted to 0.98 nm.

Staying with this series, now noted: kaolinite of Table 1; spacing of the clay with the named modifier.
As to `CC(=O)O` [Acetic acid], the dMODIFIER was 1.10 nm.

For Manganese acetate, the dMODIFIER turned out to be 1.41 nm.

For the compound `CNC=O` [N-methyl formamide (NMF), N-methyl formamide], the dMODIFIER turned out to be 1.02 nm.

For the compound `CC(N)=O` [Acetamide], the dMODIFIER is recorded as 1.09 nm.

With `C=COC(C)=O` [Vinyl acetate], the dMODIFIER came out at 1.21 nm.

As for `NN.O` [Hydrated hydrazine], the dMODIFIER is recorded as 1.03 nm.

Take `O=C(O)c1ccccc1O` [Salicylic acid]: the dMODIFIER worked out at 1.07 nm.

As for `O=C1CCCCCN1` [Caprolactam], the dMODIFIER came to 1.18 nm.

With `O=C(OC[C@H]1O[C@@H](OC(=O)c2cc(O)c(O)c(OC(=O)c3cc(O)c(O)c(O)c3)c2)[C@H](OC(=O)c2cc(O)c(O)c(OC(=O)c3cc(O)c(O)c(O)c3)c2)[C@@H](OC(=O)c2cc(O)c(O)c(OC(=O)c3cc(O)c(O)c(O)c3)c2)[C@@H]1OC(=O)c1cc(O)c(O)c(OC(=O)c2cc(O)c(O)c(O)c2)c1)c1cc(O)c(O)c(OC(=O)c2cc(O)c(O)c(O)c2)c1` [Tannic acid], the dMODIFIER is recorded as 1.09 nm.

`C=CC(N)=O` [Archylamide]: the dMODIFIER turned out to be 1.14 nm.

On to `CCCCCC(=O)O` [Hexanoic acid], for which the dMODIFIER came to 1.23 nm.

For the compound `C[S+](C)[O-]` [Dimethyl sulfoxide (DMSO), Dimethyl sulfoxide], the dMODIFIER was found to be 1.11 nm.

Regarding `O=C(O)CCCCC(=O)O` [Adipic acid], the dMODIFIER amounted to 1.03 nm.

For `C1CCCCC1` [Hexamethylene], the dMODIFIER came out at 1.02 nm.

For the compound `O=C(O)/C=C\C(=O)O` [Maleic acid], the dMODIFIER is recorded as 1.20 nm.

With `NN` [Anhydrous hydrazine], the dMODIFIER is 0.96 nm.

Consider `O` [Water], for which the dMODIFIER was 0.78 nm.

As for `CCCC(=O)O` [Butyric acid], the dMODIFIER came to 1.01 nm.

`O=C1C=CC(=O)O1` [Maleic anhydride]: the dMODIFIER was found to be 1.20 nm.

`CC=O` [Acetaldehyde]: the dMODIFIER was determined as 0.91 nm.

Regarding `CC(O)C(=O)O` (stereo not drawn) [Lactic acid], the dMODIFIER came to 1.08 nm.

The values are drawn from patent publication US20100272831A1, “PROCESS FOR MANUFACTURING NANOCOMPOSITE MATERIALS FOR MULTISECTORAL APPLICATIONS” (NANOBIOMATTERS, S.L., priority 2005, published 2010).
